In US11427558B1, “Indazoles and azaindazoles as LRRK2 inhibitors” (ESCAPE Bio, Inc., priority 2019, dated 2022):

How the values were obtained:
[1] = biological target: Recombinant wild type LRRK2 protein (Homo sapiens (Human), UniProt Q5S007); assay: LRRK2 kinase activity, LanthaScreen TR-FRET assay (wild type); format: biochemical; conditions: LRRKtide 400 nM, 25 μM ATP, 60 min; read-out: LRRK2 WT IC50
Procedure, shortened: (§1)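 Recombinant human wild-type or G2019S LRRK2 phosphorylated fluorescein-labelled LRRKtide (ERM-based) with ATP and serially diluted compound for 60 min at room temperature.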

[2] = biological target: Recombinant G2019S-LRRK2 protein (Homo sapiens (Human), UniProt Q5S007, G2019S); assay: LRRK2 kinase activity, LanthaScreen TR-FRET assay (G2019S); format: biochemical; conditions: LRRKtide 400 nM, 25 μM ATP, 60 min
Procedure, shortened: as §1

Sequence of Recombinant wild type LRRK2 protein (Q5S007 whole entry): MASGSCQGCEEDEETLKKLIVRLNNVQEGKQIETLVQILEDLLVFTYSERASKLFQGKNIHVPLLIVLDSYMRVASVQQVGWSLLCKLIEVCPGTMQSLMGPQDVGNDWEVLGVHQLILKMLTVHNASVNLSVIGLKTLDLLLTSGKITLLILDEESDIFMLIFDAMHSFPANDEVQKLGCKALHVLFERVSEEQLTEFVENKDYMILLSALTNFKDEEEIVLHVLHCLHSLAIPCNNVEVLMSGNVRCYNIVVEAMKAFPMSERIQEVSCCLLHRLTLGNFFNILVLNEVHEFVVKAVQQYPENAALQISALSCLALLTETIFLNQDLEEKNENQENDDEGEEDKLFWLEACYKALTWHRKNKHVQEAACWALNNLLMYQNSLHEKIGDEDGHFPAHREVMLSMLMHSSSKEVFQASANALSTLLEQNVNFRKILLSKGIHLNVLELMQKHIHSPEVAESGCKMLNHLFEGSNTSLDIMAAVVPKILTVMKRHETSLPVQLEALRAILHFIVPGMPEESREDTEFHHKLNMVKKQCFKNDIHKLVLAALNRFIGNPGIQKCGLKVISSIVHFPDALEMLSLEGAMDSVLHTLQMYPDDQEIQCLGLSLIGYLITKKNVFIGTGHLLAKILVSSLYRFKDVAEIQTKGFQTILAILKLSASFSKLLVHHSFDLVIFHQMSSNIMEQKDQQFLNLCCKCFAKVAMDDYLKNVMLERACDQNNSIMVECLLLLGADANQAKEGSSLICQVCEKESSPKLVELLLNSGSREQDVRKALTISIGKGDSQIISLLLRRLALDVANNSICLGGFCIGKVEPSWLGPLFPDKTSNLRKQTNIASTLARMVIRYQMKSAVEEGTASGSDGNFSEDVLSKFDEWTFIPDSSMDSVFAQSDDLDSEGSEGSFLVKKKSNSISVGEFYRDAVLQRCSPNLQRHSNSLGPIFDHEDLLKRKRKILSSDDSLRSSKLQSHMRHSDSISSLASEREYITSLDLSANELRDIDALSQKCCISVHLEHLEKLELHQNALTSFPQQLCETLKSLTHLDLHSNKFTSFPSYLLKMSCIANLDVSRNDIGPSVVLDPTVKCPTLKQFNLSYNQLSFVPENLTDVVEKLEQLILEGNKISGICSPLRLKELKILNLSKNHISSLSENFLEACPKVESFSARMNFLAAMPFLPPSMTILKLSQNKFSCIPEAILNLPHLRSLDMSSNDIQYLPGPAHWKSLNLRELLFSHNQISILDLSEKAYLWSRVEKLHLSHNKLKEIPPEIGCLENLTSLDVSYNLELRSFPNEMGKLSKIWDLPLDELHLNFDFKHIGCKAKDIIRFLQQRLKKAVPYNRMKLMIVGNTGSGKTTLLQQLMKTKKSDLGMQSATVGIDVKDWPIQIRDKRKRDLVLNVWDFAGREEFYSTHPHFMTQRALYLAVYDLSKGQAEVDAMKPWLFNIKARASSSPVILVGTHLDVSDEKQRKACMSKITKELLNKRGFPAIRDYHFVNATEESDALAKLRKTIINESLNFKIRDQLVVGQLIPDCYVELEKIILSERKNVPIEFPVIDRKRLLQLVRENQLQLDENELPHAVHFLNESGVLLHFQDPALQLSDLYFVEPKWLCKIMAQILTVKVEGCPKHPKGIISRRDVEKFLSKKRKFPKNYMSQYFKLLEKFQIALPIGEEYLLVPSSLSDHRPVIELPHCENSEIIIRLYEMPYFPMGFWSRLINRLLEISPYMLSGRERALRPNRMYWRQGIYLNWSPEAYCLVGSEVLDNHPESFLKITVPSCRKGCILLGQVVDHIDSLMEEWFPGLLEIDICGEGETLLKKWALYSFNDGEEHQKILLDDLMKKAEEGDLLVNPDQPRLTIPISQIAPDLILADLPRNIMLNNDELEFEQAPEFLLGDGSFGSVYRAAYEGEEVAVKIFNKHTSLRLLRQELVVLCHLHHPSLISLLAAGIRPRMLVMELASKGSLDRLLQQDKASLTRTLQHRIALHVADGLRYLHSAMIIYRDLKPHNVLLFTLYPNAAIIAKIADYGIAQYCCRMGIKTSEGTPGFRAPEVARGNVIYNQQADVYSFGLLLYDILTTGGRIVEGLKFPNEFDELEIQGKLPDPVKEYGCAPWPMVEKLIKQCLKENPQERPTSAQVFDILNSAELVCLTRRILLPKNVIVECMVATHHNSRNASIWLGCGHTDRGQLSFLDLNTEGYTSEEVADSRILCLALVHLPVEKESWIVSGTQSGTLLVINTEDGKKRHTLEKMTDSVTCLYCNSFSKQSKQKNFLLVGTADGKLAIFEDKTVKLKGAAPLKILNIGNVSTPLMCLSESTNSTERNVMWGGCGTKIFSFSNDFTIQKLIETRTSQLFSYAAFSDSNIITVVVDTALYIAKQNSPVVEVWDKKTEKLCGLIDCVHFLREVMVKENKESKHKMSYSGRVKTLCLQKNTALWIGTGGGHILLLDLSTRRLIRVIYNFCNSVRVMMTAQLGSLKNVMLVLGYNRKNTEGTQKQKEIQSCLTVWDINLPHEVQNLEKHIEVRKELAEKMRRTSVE
Sequence of Recombinant G2019S-LRRK2 protein (Q5S007 whole entry G2019S): as the sequence (Q5S007 whole entry) above, with G2019S counted along it

| Compound | IC50 [1] [nM] | IC50 [2] [nM] |
| --- | --- | --- |
| N#Cc1cnc(C(=O)Nc2ccc3[nH]nc(-c4cnoc4)c3c2)c(C2CC2)c1 [Example 310, 5-Cyano-3-cyclopropyl-N-(3-(isoxazol-4-yl)-1H-indazol-5-yl)picolinamide] | 100 to 1000 | < 100 |
| COc1cccc(-c2n[nH]c3ccc(NC(=O)c4ncc(C#N)cc4C4CC4)cc23)c1 [Example 311, 5-Cyano-3-cyclopropyl-N-(3-(3-methoxyphenyl)-1H-indazol-5-yl)picolinamide] | 100 to 1000 | < 100 |
| N#Cc1cnc(C(=O)Nc2ccc3[nH]nc(-c4cnco4)c3c2)c(C2CC2)c1 [Example 312, 5-Cyano-3-cyclopropyl-N-(3-(oxazol-5-yl)-1H-indazol-5-yl)picolinamide] | 100 to 1000 | < 100 |
| C=C(C)c1cc(C#N)cnc1C(=O)Nc1ccc2[nH]nc(C)c2c1 [Example 313, 5-Cyano-N-(3-methyl-1H-indazol-5-yl)-3-(prop-1-en-2-yl)picolinamide] | 1000 to 10000 | 100 to 1000 |
| Cc1c(C#N)cnc(C(=O)Nc2cc(F)c3[nH]ncc3c2)c1C [Example 314, 5-Cyano-N-(7-fluoro-1H-indazol-5-yl)-3,4-dimethylpicolinamide] | 1000 to 10000 | 100 to 1000 |
| Cc1c(C#N)cnc(C(=O)Nc2ccc3[nH]nc(F)c3c2)c1C [Example 315, 5-Cyano-N-(3-fluoro-1H-indazol-5-yl)-3,4-dimethylpicolinamide] | 1000 to 10000 | < 100 |
| Cc1c(C#N)ccc(F)c1C(=O)Nc1ccc2[nH]nc(C)c2c1 [Example 316, 3-Cyano-6-fluoro-2-methyl-N-(3-methyl-1H-indazol-5-yl)benzamide] | 100 to 1000 | < 100 |
| CSc1n[nH]c2ccc(NC(=O)c3nc(Cl)c(C#N)c(C)c3C)cc12 [Example 317, 6-Chloro-5-cyano-3,4-dimethyl-N-(3-(methylthio)-1H-indazol-5-yl)picolinamide] | < 100 | < 100 |
| N#Cc1cnc(C(=O)Nc2ccc3[nH]nc(-c4cnco4)c3c2)c(Cl)c1 [Example 318, 3-Chloro-5-cyano-N-(3-(oxazol-5-yl)-1H-indazol-5-yl)picolinamide] | < 100 | < 100 |
| Cc1cc(C#N)cnc1C(=O)Nc1ccc2[nH]nc(-c3cccc(P(C)(C)=O)c3)c2c1 [Example 319, 5-Cyano-N-(3-(3-(dimethylphosphoryl)phenyl)-1H-indazol-5-yl)-3-methylpicolinamide] | 100 to 1000 | < 100 |
| Cc1c(C(=O)Nc2ccc3[nH]nc(Cl)c3c2)nc(Cl)c(C#N)c1C [Example 320, 6-Chloro-N-(3-chloro-1H-indazol-5-yl)-5-cyano-3,4-dimethylpicolinamide] | < 100 | < 100 |
| COc1nc(C(=O)Nc2ccc3[nH]nc(Cl)c3c2)c(C)c(C)c1C#N [Example 321, N-(3-Chloro-1H-indazol-5-yl)-5-cyano-6-methoxy-3,4-dimethylpicolinamide] | 100 to 1000 | < 100 |
| COc1nc(C(=O)Nc2ccc3[nH]nc(C)c3c2)c(C)c(C)c1C#N [Example 322, 5-Cyano-6-methoxy-3,4-dimethyl-N-(3-methyl-1H-indazol-5-yl)picolinamide] | < 100 | < 100 |
| Cc1cc(C#N)cnc1C(=O)Nc1ccc2[nH]nc(CCCN3CCCCC3)c2c1 [Example 323, 5-cyano-3-methyl-N-(3-(3-(piperidin-1-yl)propyl)-1H-indazol-5-yl)picolinamide] | > 10000 | > 10000 |
| Cc1c(C(=O)Nc2ccc3[nH]nc(Br)c3c2)nc(Cl)c(C#N)c1C [Example 324, N-(3-Bromo-1H-indazol-5-yl)-6-chloro-5-cyano-3,4-dimethylpicolinamide] | < 100 | < 100 |
| Cc1nc(C(=O)Nc2ccc3[nH]nc(C)c3c2)c(C)c(C)c1C#N [Example 325, 5-Cyano-3,4,6-trimethyl-N-(3-methyl-1H-indazol-5-yl)picolinamide] | 1000 to 10000 | < 100 |
| Cc1c(C#N)cnc(C(=O)Nc2ccc3[nH]nc(C)c3c2)c1Cl [Example 326, 3-Chloro-5-cyano-4-methyl-N-(3-methyl-1H-indazol-5-yl)picolinamide] | 100 to 1000 | < 100 |
| Cc1c(C(=O)Nc2ccc3[nH]nc(C4CC4)c3c2)nc(C(F)F)c(C#N)c1C [Example 327, 5-Cyano-N-(3-cyclopropyl-1H-indazol-5-yl)-6-(difluoromethyl)-3,4-dimethylpicolinamide] | < 100 | < 100 |
| Cc1c(C(=O)Nc2ccc3[nH]nc(C4CC4)c3c2)nc(C(F)(F)F)c(C#N)c1C [Example 328, 5-Cyano-N-(3-cyclopropyl-1H-indazol-5-yl)-3,4-dimethyl-6-(trifluoromethyl)picolinamide] | < 100 | < 100 |
| COc1n[nH]c2ccc(NC(=O)c3nc(Br)c(C#N)c(C)c3C)cc12 [Example 329, 6-Bromo-5-cyano-N-(3-methoxy-1H-indazol-5-yl)-3,4-dimethylpicolinamide] | < 100 | < 100 |
| Cc1c(C(=O)Nc2ccc3[nH]nc(C4CC4)c3c2)nc(Br)c(C#N)c1C [Example 330, 6-Bromo-5-cyano-N-(3-cyclopropyl-1H-indazol-5-yl)-3,4-dimethylpicolinamide] | < 100 | < 100 |
| Cc1c(Cl)c(C(=O)Nc2ccc3[nH]nc(C4CC4)c3c2)nc(Cl)c1C#N [Example 331, 3,6-Dichloro-5-cyano-N-(3-cyclopropyl-1H-indazol-5-yl)-4-methylpicolinamide] | < 100 | < 100 |
| C=Cc1nc(C(=O)Nc2ccc3[nH]nc(C4CC4)c3c2)c(C)c(C)c1C#N [Example 332, 5-Cyano-N-(3-cyclopropyl-1H-indazol-5-yl)-3,4-dimethyl-6-vinylpicolinamide] | 100 to 1000 | < 100 |
| CCc1nc(C(=O)Nc2ccc3[nH]nc(C4CC4)c3c2)c(C)c(C)c1C#N [Example 333, 5-Cyano-N-(3-cyclopropyl-1H-indazol-5-yl)-6-ethyl-3,4-dimethylpicolinamide] | 100 to 1000 | < 100 |
| Cc1c(C(=O)Nc2ccc3[nH]nc(C4CC4)c3c2)nc(C2CC2)c(C#N)c1C [Example 334, 5-Cyano-6-cyclopropyl-N-(3-cyclopropyl-1H-indazol-5-yl)-3,4-dimethylpicolinamide] | 100 to 1000 | < 100 |
| Cc1c(C#N)cnc(C(=O)Nc2ccc3[nH]nc(-c4cnn(C5CC5)c4)c3c2)c1C [Example 335, 5-Cyano-N-(3-(1-cyclopropyl-1H-pyrazol-4-yl)-1H-indazol-5-yl)-3,4-dimethylpicolinamide] | < 100 | < 100 |
